The target in one test is D(2) dopamine receptor (Rattus norvegicus, UniProt P61169). Put plainly: Compound was tested for binding affinity against Dopamine receptor D2 using 10 nM [3H]N-methyl-spiperone as the radioligand.
The target in a further test is D(1A) dopamine receptor (Rattus norvegicus, UniProt P18901). Put plainly: Compound was tested for binding affinity against Dopamine receptor D1 using 1 nM [3H]SCH-23390 as the radioligand.
A further test deals with Mus musculus. Put plainly: Compound was tested for its activity using mouse writhing assay after icv administration. It is filed as functional.
Another test deals with Mu-type opioid receptor (Bos taurus, UniProt P79350). Put plainly: Compound was tested for binding activity against mu opioid receptor in bovine striatal membranes using 0.25 nM [3H]DAMGO as the radioligand. It is filed as cell membranes, Striatum, Membrane.

Molecules are shown by their SMILES.

Chain of D(2) dopamine receptor (P61169 whole entry): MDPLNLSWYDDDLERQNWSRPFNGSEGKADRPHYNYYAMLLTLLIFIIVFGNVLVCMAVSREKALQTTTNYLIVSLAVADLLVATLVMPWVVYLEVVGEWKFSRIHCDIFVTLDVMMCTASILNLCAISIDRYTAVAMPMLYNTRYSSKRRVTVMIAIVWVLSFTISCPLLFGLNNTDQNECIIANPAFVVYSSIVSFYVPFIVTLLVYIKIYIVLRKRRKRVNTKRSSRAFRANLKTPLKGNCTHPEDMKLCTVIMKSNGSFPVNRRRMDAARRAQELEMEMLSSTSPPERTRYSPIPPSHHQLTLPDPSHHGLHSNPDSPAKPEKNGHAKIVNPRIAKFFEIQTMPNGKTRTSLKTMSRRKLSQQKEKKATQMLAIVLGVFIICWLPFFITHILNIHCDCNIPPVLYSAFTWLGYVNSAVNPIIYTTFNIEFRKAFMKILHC
Chain of D(1A) dopamine receptor (P18901 whole entry): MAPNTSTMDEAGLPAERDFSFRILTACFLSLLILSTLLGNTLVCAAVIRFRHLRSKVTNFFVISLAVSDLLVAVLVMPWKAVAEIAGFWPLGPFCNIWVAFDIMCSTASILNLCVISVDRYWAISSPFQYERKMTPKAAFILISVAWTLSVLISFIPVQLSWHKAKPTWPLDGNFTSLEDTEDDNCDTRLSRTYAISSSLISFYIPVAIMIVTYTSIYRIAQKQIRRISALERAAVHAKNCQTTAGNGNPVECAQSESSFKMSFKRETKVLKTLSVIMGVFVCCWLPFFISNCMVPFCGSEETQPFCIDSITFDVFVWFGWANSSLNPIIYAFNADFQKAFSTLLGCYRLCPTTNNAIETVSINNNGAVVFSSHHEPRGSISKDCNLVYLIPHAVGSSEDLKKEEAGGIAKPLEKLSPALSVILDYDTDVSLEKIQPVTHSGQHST
Chain of Mu-type opioid receptor (P79350 whole entry): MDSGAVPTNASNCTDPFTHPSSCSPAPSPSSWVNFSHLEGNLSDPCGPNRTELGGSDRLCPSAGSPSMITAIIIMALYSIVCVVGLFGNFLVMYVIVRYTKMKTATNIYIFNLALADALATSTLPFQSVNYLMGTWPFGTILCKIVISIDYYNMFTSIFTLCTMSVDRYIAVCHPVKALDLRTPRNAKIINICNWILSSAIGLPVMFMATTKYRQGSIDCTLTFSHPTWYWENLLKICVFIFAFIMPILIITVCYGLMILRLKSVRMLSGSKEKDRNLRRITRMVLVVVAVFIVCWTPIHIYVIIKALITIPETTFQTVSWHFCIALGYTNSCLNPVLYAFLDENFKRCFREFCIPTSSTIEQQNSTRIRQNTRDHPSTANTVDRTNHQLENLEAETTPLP

As usually defined, the IC50 is the concentration that inhibits the measured activity by half. Low values mean greater potency, high ones weaker potency. Turning to `CN1CCc2cc(Cl)c(O)cc2C(c2cccc(N=C=S)c2)C1` (centres undefined), the IC50 was found to be 978 nM at D(2) dopamine receptor and 2.13 nM at D(1A) dopamine receptor.
`O=C(CSSCC(=O)N[C@@]12CCC(=O)[C@@H]3Oc4c(O)ccc5c4[C@@]31CCN(CC1CCC1)[C@@H]2C5)N[C@@]12CCC(=O)[C@@H]3Oc4c(O)ccc5c4[C@@]31CCN(CC1CCC1)[C@@H]2C5` had a D50 with Mus musculus of 0.08 nM. On Mu-type opioid receptor, this molecule registered an IC50 of 1.95 nM.
